The experiment concerns the target human H4 receptor (Homo sapiens (Human), UniProt Q9H3N8). In words: Binding assay on recombinant human histamine H4 receptor ([3H]histamine competition, SK-N-MC cell membranes). The note with it: membranes harvested with cell harvester; [3H]histamine 10 nM; average of results; read-out: Cell Harvester Ki. In a few lines:
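Scintillation counting of filter-bound [3H]histamine after rapid harvesting on 0.5% PEI-treated GF/C filters with ice-cold Tris/EDTA washes. Receptor source: 30,000 g membrane pellets of SK-N-MC cells stably or transiently expressing human H4. Values shown as '>' are the top concentration tested.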

Chain of human H4 receptor (Q9H3N8 whole entry): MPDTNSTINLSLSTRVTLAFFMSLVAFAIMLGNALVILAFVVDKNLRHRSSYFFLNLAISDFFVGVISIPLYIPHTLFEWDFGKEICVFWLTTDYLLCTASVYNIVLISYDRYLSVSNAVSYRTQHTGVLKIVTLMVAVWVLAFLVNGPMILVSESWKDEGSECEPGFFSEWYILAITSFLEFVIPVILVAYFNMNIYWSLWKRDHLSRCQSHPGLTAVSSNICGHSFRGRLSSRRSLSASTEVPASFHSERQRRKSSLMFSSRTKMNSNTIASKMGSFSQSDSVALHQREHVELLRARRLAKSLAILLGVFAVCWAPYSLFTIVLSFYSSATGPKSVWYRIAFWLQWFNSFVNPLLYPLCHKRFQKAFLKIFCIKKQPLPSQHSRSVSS

By Ki is commonly meant a measure of affinity in units of concentration, obtained from inhibition or displacement. For the molecule `CNC1CN(c2cnnc(NCC(C)C)c2)C1` [Example 319, 5-[3-(Methylamino)azetidin-1-yl]-N-(2-methylpropyl)pyridazin-3-amine], the Ki turned out to be 478 nM.

For `CNC1CN(c2cnnc(NCCOC)c2)C1` [Example 320, N-(2-Methoxyethyl)-5-[3-(methylamino)azetidin-1-yl]pyridazin-3-amine], the Ki came out at 4310 nM.

For the molecule `C[C@@H](Nc1cc(N2CC[C@@H](N)C2)cnn1)c1ccccc1` [Example 321, 5-[(3R)-3-Aminopyrrolidin-1-yl]-N-[(1R)-1-phenylethyl]pyridazin-3-amine], the Ki was found to be 626 nM.

Take `NC1CN(c2cnnc(NC3CC4CCC3C4)c2)C1` (stereo not shown) [Example 322, 5-(3-Aminoazetidin-1-yl)-N-bicyclo[2.2.1]hept-2-ylpyridazin-3-amine]: the Ki was 88.1 nM.

Turning to `CC(C)(C)CNc1cc(N2CC(N)C2)cnn1` [Example 323, 5-(3-Aminoazetidin-1-yl)-N-(2,2-dimethylpropyl)pyridazin-3-amine], the Ki was above 10000 nM.

As for `CNC1CN(c2cnnc(NCC(C)(C)C)c2)C1` [Example 324, N-(2,2-Dimethylpropyl)-5-[3-(methylamino)azetidin-1-yl]pyridazin-3-amine], the Ki was 899 nM.

For the molecule `CNC1CN(c2cnnc(NC3CCCCC3)c2)C1` [Example 325, N-Cyclohexyl-5-[3-(methylamino)azetidin-1-yl]pyridazin-3-amine], the Ki is 798 nM.

With `NC1CN(c2cnnc(NC3CCCC3)c2)C1` [Example 326, 5-(3-Aminoazetidin-1-yl)-N-cyclopentylpyridazin-3-amine], the Ki came to 2740 nM.

On to `CNC1CN(c2cnnc(NCC3CC3)c2)C1` [Example 327, N-(Cyclopropylmethyl)-5-[3-(methylamino)azetidin-1-yl]pyridazin-3-amine], for which the Ki came out at 95.3 nM.

As for `CC(C)CNc1cc(N2CC(N)C2)cnn1` [Example 328, 5-(3-Aminoazetidin-1-yl)-N-(2-methylpropyl)pyridazin-3-amine], the Ki came to 1680 nM.

On to `NC1CN(c2cnnc(NCc3ccccc3)c2)C1` [Example 329, 5-(3-Aminoazetidin-1-yl)-N-benzylpyridazin-3-amine], for which the Ki is above 10000 nM.

Regarding `CNC1CN(c2cnnc(NCc3ccccc3)c2)C1` [Example 330, N-Benzyl-5-[3-(methylamino)azetidin-1-yl]pyridazin-3-amine], the Ki was 2590 nM.

With `CNC1CN(c2cnnc(NC3CCCC3)c2)C1` [Example 332, N-Cyclopentyl-5-[3-(methylamino)azetidin-1-yl]pyridazin-3-amine], the Ki was determined as 1660 nM.

As to `NC1CN(c2cnnc(NC3CC3)c2)C1` [Example 333, 5-(3-Aminoazetidin-1-yl)-N-cyclopropylpyridazin-3-amine], the Ki was above 10000 nM.

With `CNC1CN(c2cnnc(NCCCO)c2)C1` [Example 334, 3-({5-[3-(Methylamino)azetidin-1-yl]pyridazin-3-yl}amino)propan-1-ol], the Ki was determined as 2570 nM.

On to `COCCNc1cc(N2CC(N)C2)cnn1` [Example 335, 5-(3-Aminoazetidin-1-yl)-N-(2-methoxyethyl)pyridazin-3-amine], for which the Ki is above 10000 nM.

Turning to `N[C@H]1CCN(c2cnnc(NC3CC3)c2)C1` [Example 336, 5-[(3S)-3-Aminopyrrolidin-1-yl]-N-cyclopropylpyridazin-3-amine], the Ki was above 10000 nM.

As for `N[C@@H]1CCN(c2cnnc(NCc3ccccn3)c2)C1` [Example 337, 5-[(3R)-3-Aminopyrrolidin-1-yl]-N-(pyridin-2-ylmethyl)pyridazin-3-amine], the Ki is above 10000 nM.

Turning to `CC(C)CNc1cc(N2CC[C@H](N)C2)cnn1` [Example 339, 5-[(3S)-3-Aminopyrrolidin-1-yl]-N-(2-methylpropyl)pyridazin-3-amine], the Ki was found to be 220 nM.

In the case of `N[C@@H]1CCN(c2cnnc(NCc3ccccc3)c2)C1` [Example 340, 5-[(3R)-3-Aminopyrrolidin-1-yl]-N-benzylpyridazin-3-amine], the Ki is 2030 nM.

Turning to `COc1ccc(CNc2cc(N3CC[C@@H](N)C3)cnn2)cc1` [Example 341, 5-[(3R)-3-Aminopyrrolidin-1-yl]-N-(4-methoxybenzyl)pyridazin-3-amine], the Ki was above 10000 nM.

On to `N[C@@H]1CCN(c2cnnc(NCc3ccc(F)cc3)c2)C1` [Example 342, 5-[(3R)-3-Aminopyrrolidin-1-yl]-N-(4-fluorobenzyl)pyridazin-3-amine], for which the inhibition constant Ki turned out to be 936 nM.

`Cc1ccc(CNc2cc(N3CC[C@@H](N)C3)cnn2)cc1` [Example 343, 5-[(3R)-3-Aminopyrrolidin-1-yl]-N-(4-methylbenzyl)pyridazin-3-amine]: the Ki is above 10000 nM.

Regarding `Cc1ccc(CNc2cc(N3CCNCC3)cnn2)cc1` [Example 344, N-(4-Methylbenzyl)-5-piperazin-1-ylpyridazin-3-amine], the Ki is above 10000 nM.

For the molecule `c1nnc(NC2CCCC2)cc1N1C[C@H]2CCN[C@H]2C1` [Example 345, N-Cyclopentyl-5-[(3aR,6aR)-hexahydropyrrolo[3,4-b]pyrrol-5(1H)-yl]pyridazin-3-amine], the Ki was found to be 1320 nM.

As to `Fc1ccc(CNc2cc(N3CCNCC3)cnn2)cc1` [Example 346, N-(4-Fluorobenzyl)-5-piperazin-1-ylpyridazin-3-amine], the Ki is above 10000 nM.

As for `COc1ccc(CNc2cc(N3CCNCC3)cnn2)cc1` [Example 347, N-(4-Methoxybenzyl)-5-piperazin-1-ylpyridazin-3-amine], the Ki is above 10000 nM.

`c1ccc(CNc2cc(N3CCNCC3)cnn2)cc1` [Example 348, N-Benzyl-5-piperazin-1-ylpyridazin-3-amine]: the Ki is above 10000 nM.

Consider `C[C@@H](Nc1cc(N2CCNCC2)cnn1)c1ccccc1` [Example 349, N-[(1R)-1-Phenylethyl]-5-piperazin-1-ylpyridazin-3-amine], for which the Ki is above 10000 nM.

On to `CC(C)(CO)CNc1cc(N2CC[C@@H](N)C2)cnn1` [Example 350, 3-({5-[(3R)-3-Aminopyrrolidin-1-yl]pyridazin-3-yl}amino)-2,2-dimethylpropan-1-ol], for which the Ki amounted to 1720 nM.

For `CNC1CN(c2cnnc(NC3CC3)c2)C1` [Example 351, N-Cyclopropyl-5-[3-(methylamino)azetidin-1-yl]pyridazin-3-amine], the Ki turned out to be 206 nM.

Consider `CNC1CN(c2cnnc(NCc3ccccn3)c2)C1` [Example 352, 5-[3-(Methylamino)azetidin-1-yl]-N-(pyridin-2-ylmethyl)pyridazin-3-amine], for which the Ki is above 10000 nM.

On to `CC(C)CNc1cc(N2CC[C@@H](N)C2)cnn1` [Example 353, 5-[(3R)-3-Aminopyrrolidin-1-yl]-N-(2-methylpropyl)pyridazin-3-amine], for which the Ki worked out at 106 nM.

For `c1nnc(NC2CCCC2)cc1N1CCNCC1` [Example 354, N-Cyclopentyl-5-piperazin-1-ylpyridazin-3-amine], the Ki was 2130 nM.

As for `c1nnc(NC2CCCCC2)cc1N1CCNCC1` [Example 355, N-Cyclohexyl-5-piperazin-1-ylpyridazin-3-amine], the Ki was 2900 nM.

On to `CCCCNc1cc(N2CCNCC2)cnn1` [Example 356, N-Butyl-5-piperazin-1-ylpyridazin-3-amine], for which the Ki came to 1600 nM.

For `CC(C)(C)CNc1cc(N2CCNCC2)cnn1` [Example 357, N-(2,2-Dimethylpropyl)-5-piperazin-1-ylpyridazin-3-amine], the Ki is 4370 nM.

For `NC1CN(c2cnnc(NCC3CCCC3)c2)C1` [Example 358, 5-(3-Aminoazetidin-1yl)-N-(cyclopentylmethyl)pyridazin-3-amine], the Ki is above 10000 nM.

For `N[C@@H]1CCN(c2cnnc(NCC3CCCC3)c2)C1` [Example 359, 5-[(3R)-3-Aminopyrrolidin-1-yl]-N-(cyclopentylmethyl)pyridazin-3-amine], the Ki was determined as 161 nM.

For the molecule `c1nnc(NCC2CCCC2)cc1N1C[C@H]2CCN[C@H]2C1` [Example 360, N-(Cyclopentylmethyl)-5-[(3aR,6aR)-hexahydropyrrolo[3,4-b]pyrrol-5(1H)-yl]pyridazin-3-amine], the Ki was determined as 1170 nM.

Take `c1nnc(NCC2CC2)cc1N1CCNCC1` [Example 361, N-(Cyclopropylmethyl)-5-piperazin-1-ylpyridazin-3-amine]: the Ki stood at 1230 nM.

Take `c1ccc(CCNc2cc(N3CCNCC3)cnn2)cc1` [Example 362, N-(2-Phenylethyl)-5-piperazin-1-ylpyridazin-3-amine]: the inhibitory constant (Ki) was 2210 nM.

In the case of `c1nnc(NCC2CCCC2)cc1N1CCNCC1` [Example 363, N-(Cyclopentylmethyl)-5-piperazin-1-ylpyridazin-3-amine], the Ki was determined as 4730 nM.

For `N[C@@H]1CCN(c2cnnc(NCCc3ccccc3)c2)C1` [Example 364, 5-[(3R)-3-Aminopyrrolidin-1-yl]-N-(2-phenylethyl)pyridazin-3-amine], the Ki was 1740 nM.

With `N[C@@H]1CCN(c2cnnc(NC3CCCCC3)c2)C1` [Example 365, 5-[(3R)-3-Aminopyrrolidin-1-yl]-N-cyclohexylpyridazin-3-amine], the Ki stood at 508 nM.

On to `CC(C)(CO)CNc1cc(N2CCNCC2)cnn1` [Example 366, 2,2-Dimethyl-3-[(5-piperazin-1-ylpyridazin-3-yl)amino]propan-1-ol], for which the Ki was above 10000 nM.

As to `CCCCNc1cc(N2CC[C@@H](N)C2)cnn1` [Example 367, 5-[(3R)-3-Aminopyrrolidin-1-yl]-N-butylpyridazin-3-amine], the Ki is 867 nM.

As for `N[C@@H]1CCN(c2cnnc(NC3CCCC3)c2)C1` [Example 368, 5-[(3R)-3-Aminopyrrolidin-1-yl]-N-cyclopentylpyridazin-3-amine], the Ki was 290 nM.

Consider `N[C@@H]1CCN(c2cnnc(NCC3CC3)c2)C1` [Example 369, 5-[(3R)-3-Aminopyrrolidin-1-yl]-N-(cyclopropylmethyl)pyridazin-3-amine], for which the Ki stood at 619 nM.

The record behind these values is patent US9732087B2, “Diamino-pyridine, pyrimidine, and pyridazine modulators of the histamine H4 receptor” (JANSSEN PHARMACEUTICA NV, priority 2008, dated 2017).
